The source of these data is US20090305994A1, “Compounds Modulating Vegf Receptor and Uses Thereof” (priority 2005, published 2009).

No end group written: not given here.

The subject of test [1] is VEGF receptors. Description: VEGF receptors binding assay ([125I]-VEGF competition on BAEC membranes). Details: species or system bovine. On the procedure: VEGF receptors binding and activation. a) VEGF competitive binding on BAEC. 1 μg of membrane protein was plated with QK and [^125I]-VEGF (500000 cpm, 10^−10 M). b) KDR activation. After stimulation total KDR was immunoprecipitated from a whole-cell protein extracts and phospho-tyrosine was visualized by a specific antibody, anti-rabbit HRP-conjugated secondary antibody and standard chemiluminescence. c) Flt-1 activation. After stimulation total Flt-1 was immunoprecipitated from a whole-cell protein extracts and phospho-tyrosine was visualized by specific antibody, anti-rabbit HRP-conjugated secondary antibody and standard chemiluminescence.
VEGF receptors binding assay. Cells were homogenized in lysis buffer (12.5 mM Tris pH 6.8, 5 mM EDTA, 5 mM EGTA) and membranes were separated from the cytosol fraction by centrifugation. Membranes were suspended in binding buffer (75 mM Tris, 12.5 mM MgCl2, 2 mM EDTA) and an equal amount of membrane protein (1 μg) was plated in 96 well plates with QK (10^−13 to 10^−8 M) and [^125I]-VEGF (Amersham). VEGF binding was evaluated with a y-counter.
VEGF receptors binding assay. To verify the biological behavior of QK peptide, we tested its ability to compete for the binding sites of VEGF on cell membranes (FIG. 1a). We competed membranes, obtained from isolated BAEC, with iodinated VEGF and then with increasing amount of QK.

Test [2] concerns ERK1/2. Put plainly: ERK1/2 activation in BAEC (western blot). It counts as cell-based, bovine. The settings on record: serum deprived BAEC, 15 minutes at 37° C. As to the method:
Effect of QK and VEGF15 on ERK1/2 activation. Serum deprived BAEC were treated with QK (a) or with VEGF 15 (b) in absence or in presence of VEGF165 (100 ng/ml) for 15 minutes at 37° C. and then dissolved in RIPA-SDS buffer. Total ERK1/2 and the phosphorylated form of ERK1/2 were visualized by specific antibodies.
Western blot. Cells were plated on six-well dishes and serum starved overnight. On the next day, cells were treated with different amount of peptide in absence or in presence of VEGF165 for 15 minutes at 37° C. and then dissolved in RIPA-SDS buffer (50 mM Tris-HCl (pH 7.5), 150 mM NaCl, 1% NP-40, 0.25% deoxycholate, 9.4 mg/50 ml sodium orthovanadate, […]). In some experiments, total KDR and Flt-1 were immunoprecipitated from an equal amount of whole-cell protein extracts using protein A/G agarose beads conjugated with antibodies raised against total KDR or Flt-1 (R&D). Proteins from whole-cell extracts or immunocomplexes were resolved by PAGE and transferred to nitrocellulose. Total extracellular signal-regulated kinase 1 and 2 (ERK1/2), serine-tyrosin phosphorylated ERK1/2, phospho-tyrosine (Cell signaling) and phospho-RB (p-RB) (Santacruz) were visualized by specific antibodies, anti-rabbit HRP-conjugated secondary antibody (Santacruz) and standard chemiluminescence (Pierce).
Activation of the proliferative intracellular pathways. We then explored whether QK is able to start the pathways of endothelial cell activation. It is well established that angiogenesis modulate by VEGF is largely ERK1/2 dependent, leading to DNA synthesis and cell proliferation (7). Accordingly, we assessed the effects of QK on this kinase. […] To verify whether ERK1/2 activation to QK results in cell proliferation, we studied cell proliferation indicators such as cell number, DNA synthesis and cyclin activation.

In test [3] the test system is WKY rats. Description: Ischemic hindlimb model, digital angiographies and blood flow determination. It counts as in vivo, rat. The settings on record: 14 days.

Take “KVKFMDVYQRSYCHP (KVKFMDVYQRSYCHP-NH2) [VEGF15, natural peptide reproducing the VEGF helix 17-25, used as control peptide]”: in test [1], the “binding to the VEGF receptor” value is “does not bind to the receptor”. Moreover, the ERK1/2 activation entry in test [2] is listed as “had no effect on ERK activation”. For the same sequence, in test [3] (dyed beads dilution, muscle ratio, infusion 10^-7 M), the “BEADS Ischemic to non ischemic” value is listed as 0.59 ± 0.15. Also, in test [3] (ischemic hindlimb, chronic intrafemoral artery infusion 10^-7 M), the “ANGIOGRAPHY Number of TFC” value turned out to be 38 ± 2.
